The results in this text go back to paper PMC12337341 (Proceedings of the National Academy of Sciences of the …, 2025).

Common to all, as to assay type: biochemical
The target of assay [1] is T1, CRYL1 (Homo sapiens, UniProt Q9Y2S2).
T1 sequence (Q9Y2S2 2-319): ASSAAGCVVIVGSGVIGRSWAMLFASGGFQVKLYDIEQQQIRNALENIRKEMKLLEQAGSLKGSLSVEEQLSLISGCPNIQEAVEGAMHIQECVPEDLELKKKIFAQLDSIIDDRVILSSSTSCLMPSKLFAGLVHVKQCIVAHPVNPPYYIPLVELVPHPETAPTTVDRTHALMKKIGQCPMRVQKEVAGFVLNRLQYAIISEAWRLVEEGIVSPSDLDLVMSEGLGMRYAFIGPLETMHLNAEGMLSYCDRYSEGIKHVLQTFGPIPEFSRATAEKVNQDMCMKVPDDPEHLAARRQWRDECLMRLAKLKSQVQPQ
The assay is described as follows: 1H NMR, NADH at […] nm and UHPLC-HRMS of product BKG. To be noted: 20 mM potassium phosphate pH 7.9, 25 °C, NAD+ (NMR); oxidation at C3.

The target in assay [2] is T1, CRYL1. In words: NADH formation at […] nm. To be noted: 20 mM potassium phosphate, 37 °C, L-gulonate.
The target in the next assay is DCXR (Homo sapiens, UniProt Q7Z4W1). The assay is described as follows: 1H NMR.
Chain of DCXR (Q7Z4W1 whole entry): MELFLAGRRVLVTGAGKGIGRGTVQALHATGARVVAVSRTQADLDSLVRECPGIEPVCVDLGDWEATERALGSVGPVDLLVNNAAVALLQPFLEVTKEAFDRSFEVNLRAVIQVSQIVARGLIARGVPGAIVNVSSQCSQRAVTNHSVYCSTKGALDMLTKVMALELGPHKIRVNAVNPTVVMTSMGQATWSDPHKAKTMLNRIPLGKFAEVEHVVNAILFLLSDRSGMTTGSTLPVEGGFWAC

Turning to `O=C(O)[C@@H](O)[C@@H](O)[C@H](O)[C@@H](O)CO` [L-gulonate], the “1H NMR, NADH at 340 nm and UHPLC-HRMS of product BKG” value at CRYL1 [1] is listed as “the CRYL1 oxidation of L-gulonate at C3 is observed”.
Take `NC(=O)c1ccc[n+]([C@@H]2O[C@H](COP(=O)(O)OP(=O)(O)OC[C@H]3O[C@@H](n4cnc5c(N)ncnc54)[C@H](O)[C@@H]3O)[C@@H](O)[C@H]2O)c1` [NAD^+]: the “NADH formation at 340 nm” value on CRYL1 [2] is “exploiting the equilibrium of the NAD-dependent reaction of CRYL1”.
Regarding `OC[C@@H](O)[C@H](O)[C@@H](O)CO` [xylitol], the “1H NMR” value at DCXR (reverse reaction with NADP+, 20 mM potassium phosphate pH 7.9, 25 °C) is “using DCXR in the reverse reaction with xylitol and NADP+ as substrates”.
With `NC(=O)c1ccc[n+]([C@@H]2O[C@H](COP(=O)(O)OP(=O)(O)OC[C@H]3O[C@@H](n4cnc5c(N)ncnc54)[C@H](OP(=O)(O)O)[C@@H]3O)[C@@H](O)[C@H]2O)c1` [NADP+], on DCXR (reverse reaction with xylitol, same), the “1H NMR” value was “using DCXR in the reverse reaction with xylitol and NADP+ as substrates”.
